Measured values as given in patent publication US20250281610A1, “P2RY2 ACTIVITY MODULATORS” (Deutsches Krebsforschungszentrum Stiftung des öffentlichen …, priority 2022, published 2025).

Experiments:
[1] = tested on: MART-1-specific TCR transduced T cells cultured with MART-1-epitope transduced BxPC3 cells; assay: T cell activation markers in co-culture of MART-1-specific TCR-T cells with MART-1+ BxPC3 cells; format: cell-based, human; conditions: single agent: 5 μM AR-C, 10 μg/ml atezolizumab or 10 μg/ml durvalumab, 6-24 hours, CD8+ MART-1-specific TCR+ population (FIG. 10)
Description: FIG. 10. […] Untreated cells served as the control.
(§1) MART-1 specific T cells were generated as described (Mezzadra et al., Nature 549, 106-110 (2017); Jorritsma et al., Blood 110 (10): 3564-3572. (2007)). To generate CD33-specific chimeric antigen receptor (CAR) T cells, a CD33Hul95-CD28Z CAR (described in WO 2019/178382) cassette was cloned into a retroviral vector, and the resulting virus was used to transduce T cells as described (Mezzadra et al., Nature 549, 106-110 (2017); Jorritsma et al., Blood 110 (10): 3564-3572. (2007)).
MART1-specific CD8+ T cells and MART1 epitope-expressing cancer cells were mixed at a ratio of 1:16 to 1:4. […] T cell activation was assessed by surface staining with anti-CD137-BV421 (4-1BB, Biolegend), anti-CD69-APC/Fire™ 750 (FN50, Biolegend), anti-CD25-AF700 (BC96, Biolegend) antibodies and intracellular staining with anti-IL-2-PE/Cy7 (MQ1-17H12, Biolegend), anti-IFN-7-BV421 (4S.B3, Biolegend), anti-TNF-α-BV785 (MAb11, Biolegend) antibodies, followed by flow cytometry analysis. For intracellular staining, brefeldin A (Biolegend) was added to the cell culture medium 4 h before cells were harvested. The viability of cancer cells that grow in suspension including THP-1 cells was assessed by flow cytometry-based absolute cell counting using AccuCount beads (Spherotech). For adherent cancer cells including BxPC3 and MCF7, the cell viability was quantified using CellTiter-Blue Cell Viability Assay (Promega).

BxPC3 cells = assay: Viability of BxPC3 cells in co-culture with MART-1-specific TCR-T cells (CellTiter-Blue); format: cell-based, human; conditions: single agent: 5 μM AR-C, 10 μg/ml atezolizumab or 10 μg/ml durvalumab, 6-24 hours (FIG. 11)
Description: FIG. 11. […] Untreated cells served as the control.
as §1
MART1-specific CD8+ T cells and MART1 epitope-expressing cancer cells were mixed at a ratio of 1:16 to 1:4. Next, cells were centrifugated at 1,600 g for 3 min and incubated at 37° C. and 5% CO2 for 12-72 hours. T cell activation was assessed by surface staining with anti-CD137-BV421 (4-1BB, Biolegend), anti-CD69-APC/Fire™ 750 (FN50, Biolegend), anti-CD25-AF700 (BC96, Biolegend) antibodies and intracellular staining with anti-IL-2-PE/Cy7 (MQ1-17H12, Biolegend), anti-IFN-7-BV421 (4S.B3, Biolegend), anti-TNF-α-BV785 (MAb11, Biolegend) antibodies, followed by flow cytometry analysis. For intracellular staining, brefeldin A (Biolegend) was added to the cell culture medium 4 h before cells were harvested. The viability of cancer cells that grow in suspension including THP-1 cells was assessed by flow cytometry-based absolute cell counting using AccuCount beads (Spherotech). For adherent cancer cells including BxPC3 and MCF7, the cell viability was quantified using CellTiter-Blue Cell Viability Assay (Promega).

durvalumab: Blocking antibody of the PD-L1-PD-1 immune checkpoint
expression of CD25 on T cells [1]: elevated | expression of CD69 on T cells [1]: elevated | expression of CD137 on T cells [1]: elevated | viability of BxPC3 cells (BxPC3 cells): reduced
